In article PMC10518257 (Nature Cancer, 2023):
Several values for one entry are separate records, joined by “and”; a condition that tells them apart may be missing. Identical values can stand only once. Like-named read-outs stand apart in the source and are kept apart here.

How the values were obtained:
LUAD-0057BS1 cells = assay: Growth inhibition (alamarBlue, 96 h); format: cell-based, human; conditions: for raw viability signal (Source Data Fig. 3b-c): LUAD-0057BS1, replicate sets
[1] = test system: Ba/F3 KIF5B–RET^WT allograft tumors; assay: Subcutaneous allograft efficacy study; format: in vivo, BALB/c nude mice
HBECp53-EV cells = assay: Growth inhibition (alamarBlue, 96 h); format: cell-based, human; conditions: for raw viability signal (Source Data Fig. 3b-c): HBEC-EV, replicate sets
LUAD-0002AS1 cells = assay: Growth inhibition (alamarBlue, 96 h); format: cell-based, human; conditions: for raw viability signal (Source Data Fig. 3b-c): LUAD-0002AS1, replicate sets
[2] = test system: Ba/F3 cells expressing KIF5B–RET^V804L; assay: Growth inhibition assay in Ba/F3 cells (CellTiter-Glo, 72 h); format: cell-based; conditions: replicate sets
LC-2/ad cells = assay: Growth inhibition (alamarBlue, 96 h); format: cell-based, human; conditions: for raw viability signal (Source Data Fig. 3b-c): LC-2/Ad, replicate sets
[3] = Transcellular transport study, apparent permeability; conditions: pig, LLC-PK1
MMNK1 cholangiocytes = assay: Growth inhibition (alamarBlue, 96 h); format: cell-based, human; conditions: MMNK, replicates
[4] = test system: LUAD-0002AS1 cells (KIF5B::RET); assay: Dose-response western blotting, EC50 for inhibition of protein phosphorylation; format: cell-based; conditions: Homo sapiens, LUAD-0002AS1, 2 h, densitometry
[5] = test system: phosphorylation of RET^G810R, RET^G810S and RET^G810C in Ba/F3 cells; assay: Western blotting of RET phosphorylation in Ba/F3 KIF5B–RET cells; format: cell-based; conditions: 1 h, western blot, 100 nM
[6] = Animal weight of tumor-bearing mice; conditions: Ba/F3-KIF5B::RET (Fig 8e), 25 mg/kg BID
[7] = Homo sapiens, 96 h, read-out: IC50 for Inhibition of Growth (95% CI)

Structure (SMILES): COCc1ccc(NC(=O)c2c(C#CCN3CCOCC3)n(C3(C)CC3)c3ncnc(N)c23)cc1 [Vepafestinib, 4-amino-N-[4-(methoxymethyl)phenyl]-7-(1-methylcyclopropyl)-6-[3-(morpholin-4-yl)prop-1-yn-1-yl]-7H-pyrrolo[2,3-d]pyrimidine-5-carboxamide]
- IC50 (LUAD-0057BS1 cells; [7]): 60 nM
- raw viability signal (Source Data Fig. 3b-c) (LUAD-0057BS1 cells; 0.01 nM): 17419.2 and 15925.4 and 18689.8 and 23015.1
- raw viability signal (Source Data Fig. 3b-c) (LUAD-0057BS1 cells; 0.1 nM): 17721.3 and 15866.4 and 19298.6 and 21993.3
- raw viability signal (Source Data Fig. 3b-c) (LUAD-0057BS1 cells; 1 nM): 17137.9 and 16657.5 and 19117.5 and 21130.9
- raw viability signal (Source Data Fig. 3b-c) (LUAD-0057BS1 cells; 10 nM): 14331 and 15273.4 and 17077.7 and 19439.8
- raw viability signal (Source Data Fig. 3b-c) (LUAD-0057BS1 cells; 100 nM): 7158.2 and 6135.51 and 7993.83 and 7600.63
- raw viability signal (Source Data Fig. 3b-c) (LUAD-0057BS1 cells; 1000 nM): 3333.45 and 1678.22 and 2095.91 and 2070.83
- raw viability signal (Source Data Fig. 3b-c) (LUAD-0057BS1 cells; 10000 nM): 2605.9 and 881.24 and 1045.29 and 1424.56
- Tumor Volume Mean ([1]; Ba/F3-KIF5B::RET, 50 mg/kg BID, Day 1, Ext. Data Fig. 9a): 153.20 mm3
- Tumor Volume Mean ([1]; Ba/F3-KIF5B::RET, 50 mg/kg BID, Day 1, Ext. Data Fig. 9b): 219.73 mm3
- Tumor Volume Mean ([1]; Ba/F3-KIF5B::RET, 50 mg/kg BID, Day 4, Ext. Data Fig. 9a): 87.32 mm3
- Tumor Volume Mean ([1]; Ba/F3-KIF5B::RET, 50 mg/kg BID, Day 4, Ext. Data Fig. 9b): 116.10 mm3
- Tumor Volume Mean ([1]; Ba/F3-KIF5B::RET, 50 mg/kg BID, Day 8, Ext. Data Fig. 9a): 98.53 mm3
- Tumor Volume Mean ([1]; Ba/F3-KIF5B::RET, 50 mg/kg BID, Day 8, Ext. Data Fig. 9b): 190.23 mm3
- Tumor Volume Mean ([1]; Ba/F3-KIF5B::RET, 50 mg/kg BID, Day 11, Ext. Data Fig. 9a): 80.59 mm3
- Tumor Volume Mean ([1]; Ba/F3-KIF5B::RET, 50 mg/kg BID, Day 11, Ext. Data Fig. 9b): 68.61 mm3
- Tumor Volume Mean ([1]; Ba/F3-KIF5B::RET, 50 mg/kg BID, Day 15, Ext. Data Fig. 9a): 80.54 mm3
- Tumor Volume Mean ([1]; Ba/F3-KIF5B::RET, 50 mg/kg BID, Day 15, Ext. Data Fig. 9b): 131.30 mm3
- Tumor Volume Mean ([1]; Fig. 7a Ba/F3-KIF5B::RET, 25 mg/kg BID, day 0, in mm³ (unit assumed)): 186.18
- Tumor Volume Mean ([1]; Fig. 7a Ba/F3-KIF5B::RET, 25 mg/kg BID, day 4, in mm³ (unit assumed)): 191.92
- Tumor Volume Mean ([1]; Fig. 7a Ba/F3-KIF5B::RET, 25 mg/kg BID, day 8, in mm³ (unit assumed)): 184.92
- Tumor Volume Mean ([1]; Fig. 7a Ba/F3-KIF5B::RET, 25 mg/kg BID, day 11, in mm³ (unit assumed)): 174.38
- Tumor Volume Mean ([1]; Fig. 7a Ba/F3-KIF5B::RET, 25 mg/kg BID, day 15, in mm³ (unit assumed)): 165.09
- Tumor Volume Mean ([1]; Fig. 7a Ba/F3-KIF5B::RET, 50 mg/kg BID, day 0, in mm³ (unit assumed)): 187.80
- Tumor Volume Mean ([1]; Fig. 7a Ba/F3-KIF5B::RET, 50 mg/kg BID, day 4, in mm³ (unit assumed)): 184.99
- Tumor Volume Mean ([1]; Fig. 7a Ba/F3-KIF5B::RET, 50 mg/kg BID, day 8, in mm³ (unit assumed)): 148.12
- Tumor Volume Mean ([1]; Fig. 7a Ba/F3-KIF5B::RET, 50 mg/kg BID, day 11, in mm³ (unit assumed)): 106.67
- Tumor Volume Mean ([1]; Fig. 7a Ba/F3-KIF5B::RET, 50 mg/kg BID, day 15, in mm³ (unit assumed)): 83.29
- raw viability signal (Source Data Fig. 3b-c) (HBECp53-EV cells; 0.01 nM): 27037 and 29740.2
- raw viability signal (Source Data Fig. 3b-c) (HBECp53-EV cells; 0.1 nM): 19425.3 (2×) and 27020.1 and 29597.7
- raw viability signal (Source Data Fig. 3b-c) (HBECp53-EV cells; 1 nM): 18975.7 (2×) and 23808.3 and 29292.2
- raw viability signal (Source Data Fig. 3b-c) (HBECp53-EV cells; 10 nM): 19412.6 (2×) and 25517.4 and 26617.3
- raw viability signal (Source Data Fig. 3b-c) (HBECp53-EV cells; 100 nM): 19354.5 (2×) and 27120.8 and 27640.4
- raw viability signal (Source Data Fig. 3b-c) (HBECp53-EV cells; 1000 nM): 20047.9 (2×) and 18738.8 and 27632.3
- raw viability signal (Source Data Fig. 3b-c) (HBECp53-EV cells; 10000 nM): 7853.82 (2×) and 1053.31 and 23430.8
- IC50 (HBECp53-EV cells; [7]): 7900 nM
- IC50 (LUAD-0002AS1 cells; [7]): 6 nM
- raw viability signal (Source Data Fig. 3b-c) (LUAD-0002AS1 cells; 0.01 nM): 16782.2 and 12668.5 and 13089
- raw viability signal (Source Data Fig. 3b-c) (LUAD-0002AS1 cells; 0.1 nM): 15237.2 and 13944 and 12774.4
- raw viability signal (Source Data Fig. 3b-c) (LUAD-0002AS1 cells; 1 nM): 14596.9 and 11925.3 and 12443
- raw viability signal (Source Data Fig. 3b-c) (LUAD-0002AS1 cells; 10 nM): 5820.38 and 4419.86 and 6264.61
- raw viability signal (Source Data Fig. 3b-c) (LUAD-0002AS1 cells; 100 nM): 2459.35 and 2506.15 and 3193.42
- raw viability signal (Source Data Fig. 3b-c) (LUAD-0002AS1 cells; 1000 nM): 1853.86 and 1731.17 and 3413.68
- raw viability signal (Source Data Fig. 3b-c) (LUAD-0002AS1 cells; 10000 nM): 1864.65 and 2510.44 and 3189.66
- GI50 ([2]; Ba/3-KIF5B-RET-V804L): 21.4 nM
- GI50 ([2]; Mus musculus, BaF3, Ba/3-KIF5B-RET-V804L): 25.9 nM
- IC50 (LC-2/ad cells; Homo sapiens, LC-2-ad, 96 h, read-out: IC50 for Inhibition of Growth (95% CI)): 15 nM
- raw viability signal (Source Data Fig. 3b-c) (LC-2/ad cells; 0.01 nM): 13380.1 and 23532.8
- raw viability signal (Source Data Fig. 3b-c) (LC-2/ad cells; 0.1 nM): 13890.3 and 20497.1
- raw viability signal (Source Data Fig. 3b-c) (LC-2/ad cells; 1 nM): 12571.5 and 21458.9
- raw viability signal (Source Data Fig. 3b-c) (LC-2/ad cells; 10 nM): 6299.39 and 16710
- raw viability signal (Source Data Fig. 3b-c) (LC-2/ad cells; 100 nM): 4794.24 and 3373.89
- raw viability signal (Source Data Fig. 3b-c) (LC-2/ad cells; 1000 nM): 5340.72 and 2243.82
- raw viability signal (Source Data Fig. 3b-c) (LC-2/ad cells; 10000 nM): 3810.66 and 1837.55
- Papp at 3 h, 1 μM [3]: 24 ×10⁻⁶ cm/s
- raw viability signal (Source Data Fig. 3b-c) (MMNK1 cholangiocytes; 0.01 nM): 15390 and 15865.6
- raw viability signal (Source Data Fig. 3b-c) (MMNK1 cholangiocytes; 0.1 nM): 14815.4 and 16483.3
- raw viability signal (Source Data Fig. 3b-c) (MMNK1 cholangiocytes; 1 nM): 13973.1 and 15595
- raw viability signal (Source Data Fig. 3b-c) (MMNK1 cholangiocytes; 10 nM): 13948.4 and 14647.6
- raw viability signal (Source Data Fig. 3b-c) (MMNK1 cholangiocytes; 100 nM): 13576.5 and 14248.6
- raw viability signal (Source Data Fig. 3b-c) (MMNK1 cholangiocytes; 1000 nM): 9712.9 and 10190.9
- raw viability signal (Source Data Fig. 3b-c) (MMNK1 cholangiocytes; 10000 nM): 13883.8 and 13507.1
- EC50 ([4]; read-out: EC50 for Inhibition of Protein Phosphorylation (95% CI), AKT S473): 1.4 nM
- EC50 ([4]; read-out: EC50 for Inhibition of Protein Phosphorylation (95% CI), ERK1/2 T202/Y204): 0.9 nM
- EC50 ([4]; read-out: EC50 for Inhibition of Protein Phosphorylation (95% CI), MEK1/2 S217/S221): 1.5 nM
- EC50 ([4]; read-out: EC50 for Inhibition of Protein Phosphorylation (95% CI), P70 RSK T421/S424): 4.9 nM
- EC50 ([4]; read-out: EC50 for Inhibition of Protein Phosphorylation (95% CI), RET Y905): 1.3 nM
- EC50 ([4]; read-out: EC50 for Inhibition of Protein Phosphorylation (95% CI), S6RP S235/S236): 15 nM
- suppression of phosphorylation of RET^G810R, RET^G810S and RET^G810C [5]: near-complete inhibition
- Animal Weight, Mean ([6]; day 0): 25.1 g
- Animal Weight, Mean ([6]; day 4): 27.6 g
- Animal Weight, Mean ([6]; day 8): 27.2 g
- Animal Weight, Mean ([6]; day 11): 27.1 g
